Measurements taken from ChEMBL document CHEMBL3217509, “Discovery of an HIV integrase inhibitor with an excellent resistance profile” (Medchemcomm, 2013).

Legend:
Parameters in all cases: species or system Homo sapiens
[1] = Inhibition of DNA polymerase beta (unknown origin)
[2] = Inhibition of DNA polymerase alpha (unknown origin)
[3] = Inhibition of DNA polymerase gamma (unknown origin)

| Structure (SMILES) | IC50 [1] | IC50 [2] | IC50 [3] |
| --- | --- | --- | --- |
| C[C@@]1(CO)[C@H](O)CC[C@@]2(C)[C@H]1CC[C@H]1C[C@@H]3C[C@@]12CC[C@]3(O)CO [APHIDICOLIN] | 1.96 µM | 7.17 µM | – |
| O=C1Nc2ccc(Cl)cc2[C@@](C#CC2CC2)(C(F)(F)F)O1 [EFAVIRENZ] | > 50 µM | > 50 µM | ≤ 50 µM |
